These results are taken from ChEMBL document CHEMBL5154806, “Synthesis and Profiling of Highly Selective Inhibitors of Methyltransferase DOT1L Based on Carbocyclic C-Nucleosides” (J Med Chem, 2022).

Structures are written as SMILES.

As a reminder, the IC50 is the point on the concentration scale where inhibition reaches its midpoint. By AUC(0-t) is commonly meant the area under the concentration-time curve up to a stated or last time point. The low end stands for less exposure, the high end for more exposure. Broadly, the AUC(0-inf) is total exposure, with the tail of the curve extrapolated. Read a high AUC(0-inf) as high exposure. What is called Vd is the apparent volume that relates the amount in the body to the concentration in plasma or blood. A high value points to extensive tissue distribution. For orientation: half-life means how long it takes for the measured level to halve. As a reminder, the Cmax is the peak of the concentration-time curve. For orientation: Tmax means the time at which the peak concentration occurs. As usually defined, the bioavailability is dose-corrected exposure relative to a reference, in per cent. A lower bioavailability goes with little systemic uptake. For orientation: clearance means the rate of elimination divided by the concentration. A lower clearance goes with a low capacity for elimination.

Data set [1] addresses T1, Histone-lysine N-methyltransferase, H3 lysine-79 specific (Homo sapiens, UniProt Q8TEK3). Briefly: Inhibition of human DOT1L by hotspot PMT activity assay.
Target sequence in this assay (Q8TEK3 whole entry): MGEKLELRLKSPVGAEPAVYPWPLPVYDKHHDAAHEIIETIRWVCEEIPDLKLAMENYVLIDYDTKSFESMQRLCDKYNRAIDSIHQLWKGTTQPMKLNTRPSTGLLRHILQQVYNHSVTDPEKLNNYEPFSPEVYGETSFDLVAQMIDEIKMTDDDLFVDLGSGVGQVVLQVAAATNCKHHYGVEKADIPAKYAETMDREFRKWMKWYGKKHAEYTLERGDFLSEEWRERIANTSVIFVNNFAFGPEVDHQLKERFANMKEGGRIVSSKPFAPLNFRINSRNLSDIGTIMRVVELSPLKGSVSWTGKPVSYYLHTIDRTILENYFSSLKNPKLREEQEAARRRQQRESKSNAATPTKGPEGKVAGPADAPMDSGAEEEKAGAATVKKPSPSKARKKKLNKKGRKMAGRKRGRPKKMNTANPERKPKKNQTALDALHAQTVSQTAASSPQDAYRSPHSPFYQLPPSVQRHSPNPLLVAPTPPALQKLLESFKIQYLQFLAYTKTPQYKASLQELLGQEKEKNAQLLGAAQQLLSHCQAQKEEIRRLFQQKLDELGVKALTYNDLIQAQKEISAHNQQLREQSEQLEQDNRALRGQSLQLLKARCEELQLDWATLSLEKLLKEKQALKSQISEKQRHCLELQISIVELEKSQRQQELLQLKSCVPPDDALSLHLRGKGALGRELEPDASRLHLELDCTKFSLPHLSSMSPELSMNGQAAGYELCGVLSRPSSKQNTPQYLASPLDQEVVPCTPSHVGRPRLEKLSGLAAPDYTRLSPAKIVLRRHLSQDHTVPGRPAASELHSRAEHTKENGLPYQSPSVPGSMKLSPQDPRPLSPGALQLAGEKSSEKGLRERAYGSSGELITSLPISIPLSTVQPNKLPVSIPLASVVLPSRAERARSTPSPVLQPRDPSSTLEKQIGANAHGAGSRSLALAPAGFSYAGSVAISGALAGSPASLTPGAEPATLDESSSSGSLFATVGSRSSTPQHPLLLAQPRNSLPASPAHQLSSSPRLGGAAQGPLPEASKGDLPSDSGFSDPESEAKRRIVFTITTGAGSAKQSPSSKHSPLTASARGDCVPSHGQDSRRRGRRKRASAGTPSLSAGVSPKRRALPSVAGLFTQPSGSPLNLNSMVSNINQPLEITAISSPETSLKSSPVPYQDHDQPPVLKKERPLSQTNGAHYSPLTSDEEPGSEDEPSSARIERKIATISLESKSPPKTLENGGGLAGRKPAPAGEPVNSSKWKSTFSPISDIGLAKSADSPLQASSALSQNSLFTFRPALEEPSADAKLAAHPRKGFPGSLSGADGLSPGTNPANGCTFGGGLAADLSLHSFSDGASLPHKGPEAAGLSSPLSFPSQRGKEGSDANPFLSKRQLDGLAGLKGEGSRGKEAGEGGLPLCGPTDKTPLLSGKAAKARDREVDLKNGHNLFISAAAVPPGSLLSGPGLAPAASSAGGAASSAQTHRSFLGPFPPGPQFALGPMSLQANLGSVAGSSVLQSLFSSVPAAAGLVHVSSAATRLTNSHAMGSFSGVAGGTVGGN
Data set [2] concerns the target T1, Histone-lysine N-methyltransferase, H3 lysine-79 specific. Briefly: Binding affinity to human DOT1L assessed as binding free energy difference.
Target sequence in this assay (Q8TEK3 whole entry, looked up): as the sequence (Q8TEK3 whole entry) above
The nature of data set [3]: AUC (0 to t) in fasted BALB/c mouse at 20 mg/kg, iv administered upto 600 mins by HPLC-MS/MS analysis. The class given is ADME, organism-based. The arrangement: dose 20 mg/kg, time < 600 min, route iv. Particulars: in vivo.
The nature of data set [4]: AUC (0 to infinity) in fasted BALB/c mouse at 20 mg/kg, po administered upto 600 mins by HPLC-MS/MS analysis. On the set-up: dose 20 mg/kg, time < 600 min, route po. The following applies: in vivo. The class given is ADME, organism-based.
The nature of data set [5]: Volume of distribution in fasted BALB/c mouse at 20 mg/kg, iv administered upto 600 mins by HPLC-MS/MS analysis. It is filed as ADME, organism-based. Particulars: in vivo.
The nature of data set [6]: Elimination rate constant in fasted BALB/c mouse at 20 mg/kg, iv administered upto 600 mins by HPLC-MS/MS analysis. It is filed as ADME, organism-based. Particulars: in vivo.
A short description of data set [7]: Half life in fasted BALB/c mouse at 20 mg/kg, iv administered upto 600 mins by HPLC-MS/MS analysis. It is filed as ADME, organism-based. The following applies: in vivo.
A short description of data set [8]: Elimination rate constant in fasted BALB/c mouse at 20 mg/kg, po administered upto 600 mins by HPLC-MS/MS analysis. The following applies: in vivo. It is filed as ADME, organism-based.
Data set [9] can be described thus: Cmax in fasted BALB/c mouse at 20 mg/kg, iv administered upto 600 mins by HPLC-MS/MS analysis. Particulars: in vivo. It is filed as ADME, organism-based. The arrangement: time < 600 min, dose 20 mg/kg, route iv.
The nature of data set [10]: Tmax in fasted BALB/c mouse at 20 mg/kg, po administered upto 600 mins by HPLC-MS/MS analysis. The class given is ADME, organism-based. Particulars: in vivo.
A short description of data set [11]: Tmax in fasted BALB/c mouse at 20 mg/kg, iv administered upto 600 mins by HPLC-MS/MS analysis. The class given is ADME, organism-based. The following applies: in vivo.
A short description of data set [12]: Half life in fasted BALB/c mouse at 20 mg/kg, po administered upto 600 mins by HPLC-MS/MS analysis. The class given is ADME, organism-based. Particulars: in vivo.
Data set [13] in a line: Cmax in fasted BALB/c mouse at 20 mg/kg, po administered upto 600 mins by HPLC-MS/MS analysis. The class given is ADME, organism-based. On the set-up: time < 600 min, dose 20 mg/kg, route po. The following applies: in vivo.
Data set [14] can be described thus: Bioavailability in fasted BALB/c mouse at 20 mg/kg, iv administered upto 600 mins by HPLC-MS/MS analysis. It is filed as ADME, organism-based. The following applies: in vivo.
The nature of data set [15]: AUC (0 to t) in fasted BALB/c mouse at 20 mg/kg, po administered upto 600 mins by HPLC-MS/MS analysis. It is filed as ADME, organism-based. On the set-up: dose 20 mg/kg, time < 600 min, route po. Particulars: in vivo.
Data set [16] is described as follows: AUC (0 to infinity) in fasted BALB/c mouse at 20 mg/kg, iv administered upto 600 mins by HPLC-MS/MS analysis. Particulars: in vivo. It is filed as ADME, organism-based. The arrangement: dose 20 mg/kg, time < 600 min, route iv.
Data set [17] is described as follows: Clearance in fasted BALB/c mouse at 20 mg/kg, iv administered upto 600 mins by HPLC-MS/MS analysis. The class given is ADME, organism-based. The following applies: in vivo.

`CN(CCCNC(=O)Nc1ccc(C(C)(C)C)cc1)C[C@H]1C[C@@](O)(c2ccc3c(N)ncnn23)[C@H](O)[C@@H]1O`: the IC50 in data set [1] was over 10000 nM.

Turning to `CC(C)N(C[C@@H]1C[C@H](c2ccc3c(N)ncnn23)[C@@H](O)[C@H]1O)[C@H]1C[C@@H](CCc2nc3cc(C(C)(C)C)ccc3[nH]2)C1`, in data set [1], 80 nM corresponded to half-maximal inhibition (IC50).

For the compound `CC(C)N(CCCNC(=O)Nc1ccccc1)C[C@H]1C[C@@H](c2ccc3c(N)ncnn23)[C@H](O)[C@@H]1O`, the deltaG in [2] is -0.717 kcal/mol.

As for `CN(CCCNC(=O)Nc1ccccc1)C[C@H]1C[C@@H](c2ccc3c(N)ncnn23)[C@@H](O)[C@@H]1O`, in data set [2], the deltaG was 3.82 kcal/mol.

In the case of `CC(C)NC[C@@H]1C[C@H](c2ccc3c(N)ncnn23)[C@@H](O)[C@H]1O`, the AUC(0-t) at 10 h in data set [3] was 7170 ng·h/mL; in data set [15], 830 ng·h/mL. For the same compound, the results for the AUC(0-inf) in [4] and in data set [16] were 845 ng·h/mL and 7250 ng·h/mL, respectively. For the same compound, the Vd in [5] is 4.43 L/kg. The k el at 10 h in [6] is 0.000173 s⁻¹; in [8] it was 0.000457 s⁻¹. Further, the half-life came to 66.7 min in data set [7] and 25.3 min in [12]. For the same compound, the Cmax amounted to 18400 ng/mL in data set [9] and 645 ng/mL in data set [13]. Further, the results for the Tmax in data set [10] and in data set [11] were 120 min and 5 min, respectively. Moreover, the bioavailability in data set [14] was 12%. The compound also gave a clearance in data set [17] of 46 mL/min/kg.

For the compound `CC(C)N(CCCNC(=O)Nc1ccc(C(C)(C)C)cc1)C[C@H]1C[C@@H](c2ccc3c(N)ncnn23)[C@H](O)[C@@H]1O`, 292 nM corresponded to half-maximal inhibition in [1] (IC50).

In turn, `Nc1ncnn2c([C@@H]3C[C@H](CO)[C@@H](O)[C@H]3O)ccc12` displayed an IC50 in data set [1] of over 10000 nM.

In turn, `CN(CCCNC(=O)Nc1ccc(C(C)(C)C)cc1)C[C@H]1C[C@@H](c2ccc3c(N)ncnn23)[C@H](O)[C@@H]1O` (stereo in doubt; (+)-25) registered an IC50 in data set [1] of 7410 nM.

On to `CN(CCCNC(=O)Nc1ccccc1)C[C@H]1C[C@@H](c2ccc3c(N)ncnn23)[C@H](O)[C@@H]1O`, for which the IC50 in data set [1] worked out at 369 nM.
